Experimental data as given in the supplement of paper PMC5762512.

Experiments:
Assay in all cases: IC50 cell viability (Alamar Blue, 96 h)
TY82 = test system: TY82
Protocol: (§1)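 Cells in log-phase growth were seeded in 96-well plates and treated with drug for 96 h at 37°C using 8-point serial dilutions from 0.0025 to 10 µM. Viability was read by Alamar Blue fluorescence after 6 h and normalised to positive and vehicle (DMSO) controls. IC50 values were fitted in ActivityBase; the value given is the mean of two independent experiments.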

14169 = test system: 14169
Protocol: as §1

HS-27 = test system: HS-27
Protocol: as §1

PER-712 = test system: PER-712
Protocol: as §1

TC797 = test system: TC797
Protocol: as §1

PER-536 = test system: PER-536
Protocol: as §1

10326 = test system: 10326
Protocol: as §1

11060 = test system: 11060
Protocol: as §1

PER-704 = test system: PER-704
Protocol: as §1

PER-891 = test system: PER-891
Protocol: as §1

PER-624 = test system: PER-624
Protocol: as §1

WI-38 = test system: WI-38
Protocol: as §1

CAKI-1 = test system: CAKI-1
Protocol: as §1

A549 = test system: A549
Protocol: as §1

PER-535 = test system: PER-535
Protocol: as §1

RPMI2650 = test system: RPMI2650
Protocol: as §1

P896-CL = test system: P896-CL
Protocol: as §1

PER-403 = test system: PER-403
Protocol: as §1

8645 = test system: 8645
Protocol: as §1

HCC2429 = test system: HCC2429
Protocol: as §1

IC50 cell viability (A549) [nM]	IC50 cell viability (HCC2429) [nM]	SMILES	IC50 cell viability (TY82) [nM]	IC50 cell viability 14169 [nM]	IC50 cell viability (HS-27) [nM]	IC50 cell viability (PER-712) [nM]	IC50 cell viability (TC797) [nM]	IC50 cell viability (PER-536) [nM]	IC50 cell viability 10326 [nM]	IC50 cell viability 11060 [nM]	IC50 cell viability (PER-704) [nM]	IC50 cell viability (PER-891) [nM]	IC50 cell viability (PER-624) [nM]	IC50 cell viability (WI-38) [nM]	IC50 cell viability (CAKI-1) [nM]	IC50 cell viability (PER-535) [nM]	IC50 cell viability (RPMI2650) [nM]	IC50 cell viability (P896-CL) [nM]	IC50 cell viability (PER-403) [nM]	IC50 cell viability 8645 [nM]
9.64	7.62	Nc1ccn([C@@H]2O[C@H](CO)[C@@H](O)C2(F)F)c(=O)n1 [Gemcitabine]	77.5	6.73	137	49.2	16.6	5.38	14.7	9.77	36.2	568	6.22	341	135	5.26	3330	29.6	4.92	12.4
738	159	COc1cc2c(cc1-c1c(C)noc1C)ncc1[nH]c(=O)n([C@H](C)c3ccccn3)c12 [I-BET 151]	584	178	4370	1940	> 10000	4210	43.5	937	950	9290	3240	1760	7150	1140	6810	3150	129	529
53.9	93.3	CN(Cc1cnc2nc(N)nc(N)c2n1)c1ccc(C(=O)N[C@@H](CCC(=O)O)C(=O)O)cc1 [Methotrexate]	136	65.1	> 10000	132	267	> 10000	> 10000	869	106	> 10000	25.7	> 10000	> 10000	> 10000	> 10000	> 10000	30.9	99
287	551	COc1ccccc1S(=O)(=O)Nc1ccc2c(c1)CN(C)C(=O)N2 [PFI-1]	1580	444	2940	1350	> 10000	5980	175	804	2160	5220	2820	3340	7020	2190	> 10000	2810	623	751
95	173	Cc1cc(/C=C/c2ccc3cc(N(C)C)ccc3[n+]2C)c(C)n1-c1ccccc1 [Pyrvinium pamoate]	206	249	263	277	165	261	230	167	198	396	188	256	906	260	421	304	199	268
118	17.5	CC[C@@]1(O)C(=O)OCc2c1cc1n(c2=O)Cc2cc3c(CN(C)C)c(O)ccc3nc2-1 [Topotecan]	116	17.7	4570	243	24.3	81.6	13.3	14.6	312	728	11.7	2480	622	107	391	272	5.01	17.4

SMILES	IC50 cell viability (A549) [nM]	IC50 cell viability (HCC2429) [nM]	IC50 cell viability (TY82) [nM]	IC50 cell viability 14169 [nM]	IC50 cell viability (HS-27) [nM]	IC50 cell viability (PER-712) [nM]	IC50 cell viability (TC797) [nM]	IC50 cell viability (PER-536) [nM]	IC50 cell viability 10326 [nM]	IC50 cell viability 11060 [nM]	IC50 cell viability (PER-704) [nM]	IC50 cell viability (PER-891) [nM]	IC50 cell viability (PER-624) [nM]	IC50 cell viability (WI-38) [nM]	IC50 cell viability (CAKI-1) [nM]	IC50 cell viability (PER-535) [nM]	IC50 cell viability (RPMI2650) [nM]	IC50 cell viability (P896-CL) [nM]	IC50 cell viability (PER-403) [nM]	IC50 cell viability 8645 [nM]
O=C1c2c(O)ccc(O)c2C(=O)c2c(NCCNCCO)ccc(NCCNCCO)c21 [Mitoxantrone]	< 2.5	10	314	< 2.5	41.7	570	141	144	< 2.5	7.36	142	266	12.8	108	1120	10.7	1280	10.9	5.31	< 2.5
CC[C@@]1([C@@H]2O[C@@H]([C@H]3O[C@@](O)(CO)[C@H](C)C[C@@H]3C)C[C@@H]2C)CC[C@H]([C@]2(C)CC[C@]3(C[C@H](O)[C@@H](C)[C@@H]([C@@H](C)[C@@H](OC)[C@H](C)C(=O)O)O3)O2)O1 [Monensin]	234	4880	5070	3510	235	7480	4080	> 10000	817	3040	9240	5760	1420	55	> 10000	> 10000	> 10000	6830	5580	4650
Cc1sc2c(c1C)C(c1ccc(Cl)cc1)=N[C@@H](CC(=O)Nc1ccc(O)cc1)c1nnc(C)n1-2 [OTX-015]	784	55.8	137	35.1	2450	939	> 10000	4260	6.97	194	440	6720	4270	543	9360	622	> 10000	921	42.6	73.6
